Article PMC12782889, “A GmNRF5a–GmCERK1–GmCAK1 module mediates chitin/chitosan‐triggered immune response in soybean” (Journal of Integrative Plant Biology, 2025)

Test system: soybean leaf discs (ROS burst)
Test: Luminol-based ROS burst assay in soybean leaf discs
Format: cell-based, soybean (Glycine max)
Conditions: 50 mg/L, leaf discs of soybean Williams, dH2O negative control
Experimental: To measure the oxidation burst, leaf discs (Ø 0.5 cm) collected from 2-week-old soybean (cultivar Williams) were floated overnight in 200 μL sterile H2O in a 96-well plate. The H2O was replaced with 200 μL reaction buffer containing luminol/peroxidase ([…] luminol, 10 mg/mL peroxidase) and chitooligosaccharides treatments (50 mg/L). flg22 was used as a positive control. The luminescence was measured using a GLOMAX96 microplate luminometer (Promega, Madison, WI, USA). The experiments for MAPK activation were carried out as described previously ([[…] et al., 2014]). The MAPK activation was determined by immunoblots with anti-phospho-p44/42 MAPK antibody (#4370; Cell Signaling, Boston, MA, USA).

## CC(=O)N[C@@H]1[C@@H](O)[C@H](O[C@@H]2O[C@H](CO)[C@@H](O[C@@H]3O[C@H](CO)[C@@H](O[C@@H]4O[C@H](CO)[C@@H](O[C@@H]5O[C@H](CO)[C@@H](O)[C@H](O)[C@H]5NC(C)=O)[C@H](O)[C@H]4NC(C)=O)[C@H](O)[C@H]3NC(C)=O)[C@H](O)[C@H]2NC(C)=O)[C@@H](CO)O[C@H]1O [Chitin oligosaccharide (dp5), chitin oligosaccharide]
  ROS burst: stronger ROS burst than that of CTOS (dp4)
